Each block holds one compound with its values, some of them ahead of it. Where a SMILES comes first, the peptide text is derived from it. Bridges are numbered along the chain shown (N, C = ends).
Legend:
CaCo-2 cells = experiment: 3H-taurocholate (bile acid) absorption by CaCo-2 monolayer; assay type: cell-based, human; settings: for Absorption of 3H-taurocholate (kinetics experiment): 16-day grown CaCo-2 monolayers, up to 60 minutes incubation; for Absorption of 3H-taurocholate (kinetics experiment) / Absorption of 3H-taurocholate (bar graph experiment): 30 minutes pre-incubation; for Absorption of 3H-taurocholate (bar graph experiment): CaCo-2 cells grown for 20 days, 60 minutes incubation, quadruplets
Description: (§1) CaCo-2 cell culture: CaCo-2, human colon carcinoma cells, were obtained from American Type Culture Collection (ATCC) and cultured in DMEM medium containing 10% fetal bovine serum, 1% penicillin-streptomycin, 2 mM L-glutamine, 1% non-essential-amino acids. Cells were fed fresh medium every third day and grown for 16-21 days to form completely differentiated monolayer. Fully differentiated CaCo-2 cells are known to express high density of GC-C receptors.
Preparation of ^3H-taurocholate Cocktail: Phosphatidyl choline was dissolved in ethanol to make 50 mM stock solution. Calculated volume of the stock solution of phosphatidyl choline was mixed with 3H-taurocholate in a plastic tube and dried under argon gas at 80° C. The dried material was dissolved in transport buffer to get the final concentration of phosphatidyl choline (0.5 mM) and of 3H-taurocholate 10 μCi/mL.
CaCo-2 cells were grown in 24-well plates for 16 days to allow complete monolayer formation and cell differentiation. Completely differentiated monolayers were then pre-incubated with 250 μL of the transport buffer (HEPES 25 mM, NaCl 120 mM, KCl 5.4 mM, CaCl2 1.8 mM and MgSO4, pH 7.5) containing either SP-304 alone or in combination with PDE inhibitors such as IBMX, SS and ZAP. The monolayers were pre-incubated with transport buffer containing either of the following: vehicle (control), 1 mM 8-bromo-cGMP, 500 μM SS, 500 μM ZAP, 1 μM SP-304, 0.1 μM SP-304+500 μM SS and 1 μM SP-304+500 μM ZAP. After the indicated pre-incubation time, 50 μL of ^3H-taurocholate (1 μCi) cocktail was added and cells were incubated for an additional 60 minutes, washed three times with ice cold PBS. Cells were lysed with 0.5 N NaOH for 4 hours and radioactivity in the lysate was counted in a scintillation counter.
16-day grown monolayers of CaCo-2 cells in 24-well plates were pre-incubated with transport buffer containing the compounds as indicated in the figure for 30 minutes. After the pre-incubation, 1 μCi of ^3H-taurocholate cocktail was added in each well and cells were further incubated for 60 minutes. Cells were washed three times with ice cold PBS and lysed with 0.5 N NaOH and lysates were counted for radioactivity in a scintillation counter. Results are expressed as an average of three determinations. Results on the x-axis were plotted in logarithmic scale.
After the pre-incubation, 1 μCi of ^3H-taurocholate cocktail was added in each well and cells were further incubated for 60 minutes. Cells were washed three times with ice cold PBS and lysed with 0.5 N NaOH and lysates were counted for radioactivity in a scintillation counter. This experiment was run in quadruplets and results are expressed as mean±SD.
The procedure used in this experiment was essentially the same except that a lower concentration of ZAP (250 μM) in combination experiments with SP-304.

GC-C receptors = target: T1, GC-C receptors (Homo sapiens, UniProt P25092); experiment: Cyclic GMP stimulation assay in CaCo-2 cells; assay type: cell-based; settings: CaCo-2 monolayers; for Effect of PDE inhibitor on stimulation of cGMP production by SP-304: in combination with SP-304, 30 minutes
T1 construct: Fully differentiated CaCo-2 cells are known to express high density of GC-C receptors; host or cells: CaCo-2 human colon carcinoma cells, differentiated monolayers
Description: as §1
Cyclic GMP stimulation assay: Biological activity of the GCRA peptides was assayed as previously reported (5). Briefly, 16 days grown monolayers of CaCo-2 cells in 24-well plates were washed twice with 250 μl of DMEM containing 50 mM HEPES (pH 7.4), pre-incubated at 37° C. for 10 min with 250 μl of DMEM containing 50 mM HEPES (pH 7.4) and 1 mM isobutylmethylxanthine (IBMX), followed by incubation with GCRA peptides (0.1 nM to 10 μM) for 30 min. The medium was aspirated, and the reaction was terminated by the addition of 3% perchloric acid. Following centrifugation, and neutralization with 0.1 N NaOH, the supernatant was used directly for measurements of cGMP using an ELISA kit (Caymen Chemical, Ann Arbor, Mich.)
Monolayers were treated 500 μL of serum free DMEM for 30 minutes with either SP-304 alone or in combination with phosphodiesterase inhibitors such as, 3-isobutyl-1-methylxanthine (IBMX), sulindac sulfone (SS) and zaprinast (ZAP). After the incubation, monolayers were lysed with 250 μL of 3% perchloric acid. The lysate was neutralized with 0.1 N NaOH and used for ELISA to determine the concentration of cGMP. The assay procedure was essentially the same as described (5). […] Since CaCo-2 cells overexpress phosphodiesterases (PDE), GC-C agonists are used in combination with PDE inhibitors to measure the actual stimulatory effect of GC-C agonists.

[1] = system: patients with chronic idiopathic constipation (CIC); experiment: Plecanatide Phase IIb/III trial in patients with chronic idiopathic constipation; assay type: in vivo, human
Description: The randomized, double-blind, placebo-controlled, repeat-dose, dose-ranging study was designed to determine whether plecanatide could increase the number of complete spontaneous bowel movements (CSBM's) and impact other parameters such as stool consistency, straining and time to first bowel movement in patients with CIC. The 12-week study, which included 951 CIC patients at 113 clinical sites in the United States, evaluated 3 doses of plecanatide (0.3, 1.0, 3.0 mg) plus a placebo arm.

[2] = In vitro proteolytic stability using simulated gastric fluid (SGF) digestion, HPLC analysis; assay type: in vitro ADME; settings: 0 min vs 120 min, HPLC (FIG. 1B)
Description: FIG. 1B is a schematic representation of the results of HPLC chromatographic analyses of SP-304 samples after incubation with SGF at indicated times (0 min in the upper panel and 120 min in the lower panel). […] The arrows indicate the elution position of SP-304.
The stability of the GRCA peptide according to the invention is determined in the presence of simulated gastric fluid (SGF). GRCA peptide (final concentration of 8.5 mg/ml) is incubated in SGF (Proteose peptone (8.3 g/liter; Difco), D-Glucose (3.5 g/liter; Sigma), NaCl (2.05 g/liter; Sigma), KH2PO4 (0.6 g/liter; Sigma), CaCl2 (0.11 g/liter), KCl (0.37 g/liter; Sigma), Porcine bile (final 1× concentration 0.05 g/liter; Sigma) in PBS, Lysozyme (final 1× concentration 0.10 g/liter; Sigma) in PBS, Pepsin (final 1× concentration 0.0133 g/liter; Sigma) in PBS). SGF is made on the day of the experiment and the pH is adjusted to 2.0±0.1 using HCl or NaOH as necessary. After the pH adjustment, SGF is sterilized filtered with 0.22 μm membrane filters. SP-304 (final concentration of 8.5 mg/ml) is incubated in SGF at 37° C. for 0, 15, 30, 45, 60 and 120 min in triplicate aliquots. Following incubations, samples are snap frozen in dry ice then are stored in a −80° C. freezer until they are assayed in duplicate.

animal models = experiment: Animal models, oral administration of plecanatide; assay type: in vivo
[3] = In vitro proteolytic stability using simulated intestinal fluid (SIF) digestion, HPLC analysis; assay type: in vitro ADME
Description: FIG. 2B is a schematic representation of the results of HPLC chromatographic analyses of SP304 samples after incubation with (A) heat inactivated SIF for 300 min or with (B) SIF for 120 min. […] Arrows indicate the position of SP-304.
Arrow indicates the elution position of SP-304 peptide. […] These new peptide peaks represent the possible degradation products of SP-304.
Arrow indicates the elution position of SP-332 peptide.
Arrows indicate the elution position of SP-333.
The stability of the GRCA peptide is also evaluated against digestion with simulated intestinal fluid (SIF). SIF solution was prepared by the method as described in the United States Pharmacopoeia, 24th edition, p2236. The recipe to prepare SIF solution is as described below. The SIF solution contains NaCl (2.05 g/liter; Sigma), KH2PO4 (0.6 g/liter; Sigma), CaCl2 (0.11 g/liter), KCl (0.37 g/liter; Sigma), and Pacreatin 10 mg/ml. The pH is adjusted to 6 and the solution is filter sterilized. A solution of SP-304 (8.5 mg/ml) is incubated in […] at 37° C. for 0, 30, 60, 90, 120, 150 and 300 min in triplicate aliquots. Following incubations, samples are removed and snap frozen with dry ice and stored in a −80° C. freezer until they are assayed in duplicate. F
The integrity of GRCA peptide is evaluated by HPLC by essentially using the method described for SGF digestion.

[4] = simulated gastric fluid (SGF) with Pepsin (0.0133 g/liter), Lysozyme, Porcine bile, pH 2.0±0.1; settings: 37° C., up to 120 min
[5] = Phase IIb/III clinical study, oral, CIC

T1 sequence (P25092 24-1073): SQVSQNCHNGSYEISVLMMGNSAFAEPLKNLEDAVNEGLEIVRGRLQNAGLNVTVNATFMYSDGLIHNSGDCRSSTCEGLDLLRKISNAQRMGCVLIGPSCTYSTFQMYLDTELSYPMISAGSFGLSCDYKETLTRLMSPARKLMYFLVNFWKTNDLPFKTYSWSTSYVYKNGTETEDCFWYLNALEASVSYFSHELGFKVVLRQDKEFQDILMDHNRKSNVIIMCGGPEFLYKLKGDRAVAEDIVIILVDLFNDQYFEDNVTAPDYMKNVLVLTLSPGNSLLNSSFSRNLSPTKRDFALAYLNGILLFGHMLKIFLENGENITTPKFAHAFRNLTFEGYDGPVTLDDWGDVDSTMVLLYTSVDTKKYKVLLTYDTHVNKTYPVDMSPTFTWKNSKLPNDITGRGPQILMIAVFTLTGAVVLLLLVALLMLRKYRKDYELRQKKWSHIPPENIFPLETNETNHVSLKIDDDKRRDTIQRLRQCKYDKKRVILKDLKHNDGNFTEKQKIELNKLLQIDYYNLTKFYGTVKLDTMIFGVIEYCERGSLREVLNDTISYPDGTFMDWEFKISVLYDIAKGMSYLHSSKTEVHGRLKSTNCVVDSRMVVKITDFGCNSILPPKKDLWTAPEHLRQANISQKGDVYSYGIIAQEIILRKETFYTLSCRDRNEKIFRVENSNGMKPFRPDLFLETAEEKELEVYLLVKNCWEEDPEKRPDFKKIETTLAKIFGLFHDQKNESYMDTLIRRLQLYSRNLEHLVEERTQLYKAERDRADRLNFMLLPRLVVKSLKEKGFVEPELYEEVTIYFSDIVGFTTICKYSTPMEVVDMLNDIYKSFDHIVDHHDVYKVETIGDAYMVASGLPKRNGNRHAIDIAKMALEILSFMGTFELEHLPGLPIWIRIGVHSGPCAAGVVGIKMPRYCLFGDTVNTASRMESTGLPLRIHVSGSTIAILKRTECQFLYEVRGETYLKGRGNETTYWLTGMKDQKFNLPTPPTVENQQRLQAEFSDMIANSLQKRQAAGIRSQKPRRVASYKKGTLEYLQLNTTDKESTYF

Compound: Nc1nc2c(nc(Br)n2[C@@H]2O[C@@H]3COP(=O)(O)O[C@H]3[C@H]2O)c(=O)[nH]1 [8-Br-cGMP, 8-bromo-cGMP, reference compound]
Absorption of 3H-taurocholate (kinetics experiment) (CaCo-2 cells): inhibited
Absorption of 3H-taurocholate (bar graph experiment) (CaCo-2 cells): inhibited

Compound: CC(C)Cn1c(=O)n(C)c(=O)c2[nH]cnc21 [IBMX, 3-isobutyl-1-methylxanthine]
Effect of PDE inhibitor on stimulation of cGMP production by SP-304 (GC-C receptors): synergistic effects

Compound: Asn^1-Asp^2-Glu^3-Cys^4-Glu^5-Leu^6-Cys^7-Val^8-Asn^9-Val^10-Ala^11-Cys^12-Thr^13-Gly^14-Cys^15-Leu^16
not cleaved [4]: major peak did not change after 120 min

Now from value to compound, other results behind:

HPLC major peak after incubation with SGF [2]: resistant to SGF digestion
HPLC peak after incubation with SIF for 60 min ([3]; 0 vs 60 min, HPLC (FIG. 7D)): completely vanished
cGMP production by CaCo-2 cells in response to stimulation (GC-C receptors; 30 minutes): produced cGMP
Compound: CC(C)C[C@H](NC(=O)[C@@H]1CSSC[C@@H]2NC(=O)[C@H](CC(C)C)NC(=O)[C@H](CCC(=O)O)NC(=O)[C@@H](NC(=O)[C@H](CCC(=O)O)NC(=O)[C@H](CC(=O)O)NC(=O)[C@@H](N)CC(N)=O)CSSC[C@H](NC(=O)[C@H](C)NC(=O)[C@H](C(C)C)NC(=O)[C@H](CC(N)=O)NC(=O)[C@H](C(C)C)NC2=O)C(=O)N[C@@H]([C@@H](C)O)C(=O)NCC(=O)N1)C(=O)O [SP-304, Asn^1-Asp^2-Glu^3-Cys^4-Glu^5-Leu^6-Cys^7-Val^8-Asn^9-Val^10-Ala^11-Cys^12-Thr^13-Gly^14-Cys^15-Leu^16] (H-NDECELCVNVACTGCL-OH; disulfide 4-12, 7-15; N-terminus assumed)
Absorption of 3H-taurocholate (kinetics experiment) (CaCo-2 cells): inhibited
Absorption of 3H-taurocholate (bar graph experiment) (CaCo-2 cells): inhibited
Inhibition in absorption of 3H-taurocholate, SP-304 alone (CaCo-2 cells; SP-304 0.1 μM alone): did not produce much inhibition
Inhibition of 3H-taurocholate absorption, SP-304 in combination with ZAP (CaCo-2 cells; SP-304 0.1 μM in combination with ZAP (250 μM)): greater effect on inhibition
Overall responder rate ([1]; 3 mg dose, 12-week treatment, CIC patients (placebo 10.7%), p=0.009): 19%
Mean increase in CSBMs over the 12-week treatment period ([1]; 3 mg dose, CIC patients, p<0.001): 2.13
Incidence of diarrhea ([1]; 3 mg, CIC patients (placebo incidence 1.3%)): 9.7%
Key secondary endpoints ([1]; Phase IIb/III clinical study, CIC patients): statistically significant improvements
Primary and key secondary endpoints of the study [1, 5]: met the primary and key secondary endpoints
Tolerability [1, 5]: well tolerated
GI inflammation (animal models): ameliorates GI inflammation
Intestinal secretion (animal models): promotes intestinal secretion
HPLC peak after incubation with SIF for 120 min ([3]; 120 min, HPLC (FIG. 2B, 7E, 7F)): completely converted SP-304 into another peptide

Effect of PDE inhibitor on stimulation of cGMP production by SP-304 (GC-C receptors): synergistic effects
Compound: CC1=C(CC(=O)O)c2cc(F)ccc2/C1=C\c1ccc(S(C)(=O)=O)cc1 [SS, sulindac sulfone]

Production of cGMP among the PDE inhibitors (GC-C receptors; in combination with SP-304): maximum production of cGMP
Effect of PDE inhibitor on stimulation of cGMP production by SP-304 (GC-C receptors): synergistic effects
Compound: CCCOc1ccccc1-c1nc2nn[nH]c2c(=O)[nH]1 [ZAP, zaprinast]

Reference: patent US20140187470A1 (Synergy Pharmaceuticals Inc., priority 2013, published 2014)
